Starred links: 1 amine or outer side, 2 acyl side, 3 side chain; linkers in the order of their positions; H or OH if unused. Residues, ends and D or L forms follow the SMILES beside them. Groups on a side chain read outwards from the residue. No end group written: not given here. *: point of attachment. C18 diacid = O=C(O)CCCCCCCCCCCCCCCCC(=O)*; γGlu = O=C(O)[C@H](CCC(=O)[*:2])N[*:1]; AEEA = NCCOCCOCC(=O)O
Tests used:
[1] = system: rats with chronic spinal cord injury; assay: BBB locomotor scoring in rats with chronic spinal cord injury; format: in vivo; settings: 2 mg/kg subcutaneous daily; days 1-14 after surgery (acute and subacute phase), FIG. 4
Procedure: Female SD rats (250-270 g) were randomly grouped after being weighed. After the dorsal T10 segment lamina of the rats was removed, spinal cord contusion was performed on rats in each spinal cord injury (SCI) surgery group, while for rats in the sham operation (sham) group, only the T10 segment lamina was removed without contusion. Rats with a BBB locomotor score > 1 on day 1 after spinal cord injury surgery were excluded, and the remaining rats were randomly grouped and subcutaneously injected daily with: equal volume of physiological saline (vehicle control), PW5 (2 mg/kg), and PW337 (2 mg/kg); rats in the sham operation group were not injected. BBB scoring was performed weekly after spinal cord injury surgery.

[2] = Determination of the half-life of polypeptides in rats (plasma LC-MS/MS); format: in vivo; parameters: AUClast (0-120 min): unit not given here; settings: male SD rats, intravenous 4 mg/kg; for 30 min blood drug concentration / level at 0.5 h: 30 min after injection; for half-life / level at 0.5 h: rat, plasma; for level at 0.5 h: read-out: 30 min blood drug concentration
Procedure: Plasma sample collection method: 2 male SD rats (280-300 g) were intravenously injected with PW5, PW6, PW182, and PW337 respectively, the pure peptide dose was 4 mg/kg, and the dosing volume was 2 mL/kg. At 0.5 min, 2 min, 5 min, 10 min, 15 min, 30 min, 60 min, and 120 min after intravenous injection of the drug via the tail vein, blood (400 µL/time) was collected through an indwelling jugular vein catheter into anticoagulant tubes containing EDTA-K2, and 100x protease inhibitor (1:50, v:v; Roche, 11873580001) was added. Whole blood samples were placed on ice and centrifuged (3200 g, 4°C, 10 min) within 1 hour after blood collection. Plasma was taken into a pre-cooled centrifuge tube, protease inhibitor (1:50, v:v) was added again, mixed homogeneously, and stored at -80°C.
Plasma sample processing method: Plasma samples were pipetted into a 96-well plate (50 µL/well), pure methanol (300 µL/well) was added, and mixed by vortexing (1500 rpm, 10 min). Centrifuged (4800 g, 4°C, 10 min), the supernatant was taken into a new 96-well plate (100 µL/well), a 20% aqueous methanol solution containing 0.2% formic acid (100 µL/well) was added, and mixed by vortexing (1500 rpm, 3 min). 10.0 µL was injected for LC-MS/MS analysis to obtain the drug concentration in the samples. Instrument model: (Waters TQ-XS) Chromatographic column: SHIMADZU Shim-Pack Scepter Claris C4-300 (2.1×50 mm, 1.9 µm) Detection results: Table 3. Half-life, blood drug concentration, and AUC data of the conjugates

[3] = Body weight of rats after spinal cord injury (SCI) surgery; format: in vivo; settings: 1 mg/kg subcutaneous daily, female SD rats, FIG. 2
Procedure: Female SD rats (250-270 g) were randomly grouped after being weighed. After the dorsal T10 segment lamina of the rats was removed, spinal cord contusion was performed on rats in each spinal cord injury (SCI) surgery group, while for rats in the sham operation (sham) group, only the T10 segment lamina was removed without contusion. Rats with a BBB locomotor score > 1 on day 1 after spinal cord injury surgery were excluded, and the remaining rats were randomly grouped and subcutaneously injected daily with: equal volume of physiological saline (vehicle control), PW5 (1 mg/kg), and PW337 (1, 2, 4 mg/kg); rats in the sham operation group were not injected. The body weight of the rats was measured weekly after spinal cord injury surgery, and BBB scoring and open field activity tests were performed.

SH-SY5Y cells = assay: Axonal growth of RA-differentiated SH-SY5Y cells on proteoglycan (ACAN) coating; format: cell-based, human; settings: PW polypeptide 2.5 µM, 72 h, proteoglycan (ACAN)-coated plate, FIG. 1
Procedure: Therefore, RA-induced differentiated SH-SY5Y can be used to simulate neuronal axonal growth in vitro and to test the effects of PW polypeptides on axonal growth.
Preparation of culture medium for SH-SY5Y: 1) DMEM/F12 + 10% FBS + 1 × penicillin-streptomycin + 1 mM sodium pyruvate; 2) DMEM/F12 + 1% FBS + 1 × penicillin-streptomycin + 1 mM sodium pyruvate. Preparation of 50 mM retinoic acid stock solution: 15.02 mg of retinoic acid was weighed and dissolved in 1 mL of dimethyl sulfoxide (DMSO), aliquoted, and frozen at -80°C. Proteoglycan (ACAN/CSPG1) is a type of chondroitin sulfate proteoglycan (CSPG). Preparation of 1 mg/mL proteoglycan stock solution: 1 mg of ACAN solid was dissolved in 1 mL of distilled water, aliquoted, and frozen at -80°C. Preparation of PW polypeptide solution for cells (1 mM): the corresponding mass of polypeptide powder was weighed, dissolved in PBS and filtered through a 0.2 µm filter membrane, aliquoted, and frozen at -20°C.
The 1 mg/mL proteoglycan was diluted to 250 µg/mL with distilled water to coat a 24-well cell culture plate: each well was coated with 3 droplets of ACAN, 2 µL per droplet. Using the culture medium containing 10% FBS, SH-SY5Y cells were seeded in the proteoglycan-coated 24-well plate (20,000 cells/well) and incubated (37°C, 5% CO2) for 20 h. The medium was replaced with a culture medium containing 1% FBS, and PW polypeptide (2.5 µM) or an equal volume of PBS solution was added. After incubation for 72 h, the cells were fixed with 4% paraformaldehyde (room temperature, 30 min), and cell morphology was photographed and recorded using a 10× optical microscope. 20-30 cells were randomly selected under each field of view, and axonal length was measured using Image J-SNT.
Data analysis: All measured axonal lengths within each proteoglycan-coated range were averaged to serve as one data point. One-way analysis of variance and Tukey's test were used to compare the differences between groups. P<0.05 was considered as a significant difference.

With `CC[C@H](C)[C@H](NC(=O)[C@H](CO)NC(=O)[C@H](CCC(=O)O)NC(=O)[C@H](Cc1ccc(O)cc1)NC(=O)[C@H](CCC(=O)O)NC(=O)[C@H](CCC(N)=O)NC(=O)[C@H](CO)NC(=O)[C@H](CC(C)C)NC(=O)[C@H](CCCCN)NC(=O)[C@H](CC(C)C)NC(=O)[C@H](CO)NC(=O)[C@H](CC(=O)O)NC(=O)[C@H](CC(N)=O)NC(=O)[C@H](C)NC(=O)[C@H](CCCCN)NC(=O)[C@H](CC(C)C)NC(=O)[C@H](CCCNC(=N)N)NC(=O)[C@H](CCC(=O)O)NC(=O)[C@H](CCSC)NC(=O)[C@H](Cc1c[nH]cn1)NC(=O)[C@H](CCC(=O)O)NC(=O)[C@H](C)NC(=O)[C@H](CCSC)NC(=O)[C@H](CC(=O)O)NC(=O)[C@H](CS)NC(=O)[C@H](CCCNC(=N)N)NC(=O)[C@H](CCCNC(=N)N)NC(=O)[C@H](CCCNC(=N)N)NC(=O)[C@H](CCC(N)=O)NC(=O)[C@H](CCCNC(=N)N)NC(=O)[C@H](CCCNC(=N)N)NC(=O)[C@H](CCCCN)NC(=O)[C@H](CCCCN)NC(=O)[C@H](CCCNC(=N)N)NC(=O)CN)C(N)=O` [PW-5, reference compound] the “BBB scores, differences among SCI, PW5 and PW337 groups” value [1] was “no significant differences”, the “AUClast (0-120 min)” value [2] was 928 and the “30 min blood drug concentration” value [2] was 0 ng/mL. For the same molecule, the half-life [2] was 4.3 min and the “body weight recovery compared with rats in the spinal cord injury (SCI) group” value [3] was “significantly accelerated on days 27-57 after surgery”.
For “GRKKRRQRRRCDMAEHTERLKANDSLKLSQEYESI-NH2 [PW-6, reference compound]”, the “effect of promoting axonal growth compared with the scrambled polypeptide (Scr, negative control)” value (SH-SY5Y cells) was “significant effect of promoting axonal growth”, the “AUClast (0-120 min)” value [2] was 1787 and the “30 min blood drug concentration” value [2] was 0 ng/mL. It also gave a half-life [2] of 2.2 min.
For `CC[C@H](C)[C@H](NC(=O)[C@H](CO)NC(=O)[C@H](CCC(=O)O)NC(=O)[C@H](Cc1ccc(O)cc1)NC(=O)[C@H](CCC(=O)O)NC(=O)[C@H](CCC(N)=O)NC(=O)[C@H](CO)NC(=O)[C@H](CC(C)C)NC(=O)[C@H](CCCCNC(=O)COCCOCCNC(=O)COCCOCCNC(=O)CC[C@H](NC(=O)CCCCCCCCCCCCCCCCC(=O)O)C(=O)O)NC(=O)[C@H](CC(C)C)NC(=O)[C@H](CO)NC(=O)[C@H](CC(=O)O)NC(=O)[C@H](CC(N)=O)NC(=O)[C@H](C)NC(=O)[C@H](CCCCN)NC(=O)[C@H](CC(C)C)NC(=O)[C@H](CCCNC(=N)N)NC(=O)[C@H](CCC(=O)O)NC(=O)[C@@H](NC(=O)[C@H](Cc1c[nH]cn1)NC(=O)[C@H](CCC(=O)O)NC(=O)[C@H](C)NC(=O)[C@H](CCSC)NC(=O)[C@H](CC(=O)O)NC(=O)[C@H](CCCNC(=N)N)NC(=O)[C@H](CCCNC(=N)N)NC(=O)[C@H](CCCNC(=N)N)NC(=O)[C@H](CCC(N)=O)NC(=O)[C@H](CCCNC(=N)N)NC(=O)[C@H](CCCNC(=N)N)NC(=O)[C@H](CCCCN)NC(=O)[C@H](CCCCN)NC(=O)[C@H](CCCNC(=N)N)NC(=O)CN)[C@@H](C)O)C(N)=O` [PW-182] (H-GRKKRRQRRRDMAEHTERLKANDSLK([AEEA-AEEA-γGlu-C18 diacid])LSQEYESI-NH2), the “AUClast (0-120 min)” value [2] was 4927113, the level at 0.5 h [2] was 64.4 µg/mL and the half-life [2] was 61.6 min.
For `CC[C@H](C)[C@H](NC(=O)[C@H](CO)NC(=O)[C@H](CCC(=O)O)NC(=O)[C@H](Cc1ccc(O)cc1)NC(=O)[C@H](CCC(=O)O)NC(=O)[C@H](CCC(N)=O)NC(=O)[C@H](CO)NC(=O)[C@H](CC(C)C)NC(=O)[C@H](CCCCNC(=O)COCCOCCNC(=O)COCCOCCNC(=O)CC[C@H](NC(=O)CCCCCCCCCCCCCCCCC(=O)O)C(=O)O)NC(=O)[C@H](CC(C)C)NC(=O)[C@H](CO)NC(=O)[C@H](CC(=O)O)NC(=O)[C@H](CC(N)=O)NC(=O)[C@H](C)NC(=O)[C@H](CCCCN)NC(=O)[C@H](CC(C)C)NC(=O)[C@H](CCCNC(=N)N)NC(=O)[C@H](CCC(=O)O)NC(=O)[C@H](CCSC)NC(=O)[C@H](Cc1c[nH]cn1)NC(=O)[C@H](CCC(=O)O)NC(=O)[C@H](C)NC(=O)[C@H](CCSC)NC(=O)[C@H](CC(=O)O)NC(=O)[C@H](CCCNC(=N)N)NC(=O)[C@H](CCCNC(=N)N)NC(=O)[C@H](CCCNC(=N)N)NC(=O)[C@H](CCC(N)=O)NC(=O)[C@H](CCCNC(=N)N)NC(=O)[C@H](CCCNC(=N)N)NC(=O)[C@H](CCCCN)NC(=O)[C@H](CCCCN)NC(=O)[C@H](CCCNC(=N)N)NC(=O)CN)C(N)=O` [PW-337], the “AUClast (0-120 min)” value [2] was 4157725, the level at 0.5 h [2] was 56.8 µg/mL and the half-life [2] was 95.6 min.
In the case of “PW-96: polypeptide derivative, SEQ ID NO: 13 (GRKKRRQRRRDMAEHTERLKAKDSLKLSQEYESI; not fully specified; MOD_RES 34: note = I at position 34 is amidated; LIPID 22: note = Lys side-chain linked to 2-(2-(2-amino ethoxy) ethoxy) acetic acid-2-(2-(2-amino ethoxy) ethoxy)acetic acid-gamma Glutamic acid-Octadecanedioic acid; SITE 6: note = D-arginine; SITE 2: note = D-arginine; SITE 8: n)”, the “promoting effect on axonal growth compared with PW6” value (SH-SY5Y cells) is reported as “not significantly enhanced”.
For “NH2-GrKKRrQrRR-C-DMAEHTEALKANDSLcyclo(KLSQEYE)SI-NH2 [PW-239]”, the “effect of promoting axonal growth compared with the scrambled polypeptide (Scr, negative control)” value (SH-SY5Y cells) was “significant effect of promoting axonal growth” and the “promoting effect on axonal growth compared with PW6” value (SH-SY5Y cells) was “not significantly enhanced”.

— patent EP4793292A1, “POLYPEPTIDE DERIVATIVE, PHARMACEUTICAL COMPOSITION THEREOF AND USE THEREOF” (Biocells (Beijing) Biotech Co., Ltd., priority 2023, dated 2025)
